AC50 data for 2 compounds are collected here from ChEMBL document CHEMBL5291721, “A preclinical secondary pharmacology resource illuminates target-adverse drug reaction associations of marketed drugs” (Nat Commun, 2023).

The target in experiment [1] is Bile salt export pump (Homo sapiens, UniProt O95342). The format is functional.
Experiment [2] deals with Acetylcholinesterase (Homo sapiens, UniProt P22303). In kind it is functional.
The target of experiment [3] is T1, Alpha-2A adrenergic receptor (Homo sapiens, UniProt P08913).
T1 sequence (P08913 whole entry): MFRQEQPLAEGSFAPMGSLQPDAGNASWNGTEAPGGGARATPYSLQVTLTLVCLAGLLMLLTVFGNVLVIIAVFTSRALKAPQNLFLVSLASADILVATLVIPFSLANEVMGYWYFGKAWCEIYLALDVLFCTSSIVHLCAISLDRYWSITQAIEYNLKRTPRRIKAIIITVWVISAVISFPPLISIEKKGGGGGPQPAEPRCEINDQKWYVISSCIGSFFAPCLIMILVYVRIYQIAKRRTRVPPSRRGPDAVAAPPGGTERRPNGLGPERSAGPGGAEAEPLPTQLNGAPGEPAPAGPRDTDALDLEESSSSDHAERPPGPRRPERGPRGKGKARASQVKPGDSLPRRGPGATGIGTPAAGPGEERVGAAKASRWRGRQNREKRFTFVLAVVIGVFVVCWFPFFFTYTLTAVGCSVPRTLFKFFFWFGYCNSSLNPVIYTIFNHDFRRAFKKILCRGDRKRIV

For experiment [4], the target named is D(1A) dopamine receptor (Homo sapiens, UniProt P21728).
Experiment [5] has as its target D(3) dopamine receptor (Homo sapiens, UniProt P35462).
Experiment [6] addresses Prothrombin (Homo sapiens, UniProt P00734). The format is functional.
For experiment [7], the target named is Histamine H3 receptor (Homo sapiens, UniProt Q9Y5N1).
The target of experiment [8] is T2, 5-hydroxytryptamine receptor 1A (Homo sapiens, UniProt P08908).
T2 sequence (P08908 whole entry): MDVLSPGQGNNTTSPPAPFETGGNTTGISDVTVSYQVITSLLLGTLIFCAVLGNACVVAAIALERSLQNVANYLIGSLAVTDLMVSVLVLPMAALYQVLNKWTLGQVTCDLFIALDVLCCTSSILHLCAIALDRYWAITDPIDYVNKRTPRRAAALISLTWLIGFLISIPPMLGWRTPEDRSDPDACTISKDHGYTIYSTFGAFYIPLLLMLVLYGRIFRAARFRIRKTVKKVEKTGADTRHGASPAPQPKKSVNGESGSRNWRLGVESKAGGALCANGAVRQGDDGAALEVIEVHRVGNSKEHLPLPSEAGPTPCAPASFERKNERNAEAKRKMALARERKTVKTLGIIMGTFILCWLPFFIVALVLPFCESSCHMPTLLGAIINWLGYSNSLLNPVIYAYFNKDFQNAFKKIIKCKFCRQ

Experiment [9] concerns the target 5-hydroxytryptamine receptor 2B (Homo sapiens, UniProt P41595). In kind it is functional, cell-based.
For experiment [10], the target named is Voltage-gated inwardly rectifying potassium channel KCNH2 (Homo sapiens, UniProt Q12809). The format is functional.
For experiment [11], the target named is Mu-type opioid receptor (Homo sapiens, UniProt P35372).
In experiment [12] the target is cGMP-inhibited 3',5'-cyclic phosphodiesterase 3A (Homo sapiens, UniProt Q14432). The format is functional.
In experiment [13] the target is 3',5'-cyclic-AMP phosphodiesterase 4A (Homo sapiens, UniProt P27815). The format is functional.
Experiment [14] deals with Prostaglandin G/H synthase 1 (Homo sapiens, UniProt P23219). The format is functional.
Experiment [15] deals with Sodium-dependent noradrenaline transporter (Homo sapiens, UniProt P23975).
Experiment [16] has as its target Sodium-dependent dopamine transporter (Homo sapiens, UniProt Q01959).
The target in experiment [17] is T3, Thromboxane A2 receptor (Homo sapiens, UniProt P21731).
T3 sequence (P21731 whole entry): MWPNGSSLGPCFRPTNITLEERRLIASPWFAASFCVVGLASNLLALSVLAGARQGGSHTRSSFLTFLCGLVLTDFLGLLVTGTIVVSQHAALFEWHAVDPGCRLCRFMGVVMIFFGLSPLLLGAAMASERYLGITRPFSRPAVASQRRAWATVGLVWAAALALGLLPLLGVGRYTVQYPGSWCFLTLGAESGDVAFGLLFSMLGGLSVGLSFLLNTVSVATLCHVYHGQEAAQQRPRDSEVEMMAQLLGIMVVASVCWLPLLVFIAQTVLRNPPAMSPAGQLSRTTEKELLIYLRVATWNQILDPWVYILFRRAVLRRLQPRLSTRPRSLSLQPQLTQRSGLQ
The format is functional, cell-based.

For experiment [18], the target named is T3, Thromboxane A2 receptor. The format is functional, cell-based. This is another data set of the same source.
Also: assay procedure not described here.

Sequence of 3',5'-cyclic-AMP phosphodiesterase 4A (P27815 whole entry): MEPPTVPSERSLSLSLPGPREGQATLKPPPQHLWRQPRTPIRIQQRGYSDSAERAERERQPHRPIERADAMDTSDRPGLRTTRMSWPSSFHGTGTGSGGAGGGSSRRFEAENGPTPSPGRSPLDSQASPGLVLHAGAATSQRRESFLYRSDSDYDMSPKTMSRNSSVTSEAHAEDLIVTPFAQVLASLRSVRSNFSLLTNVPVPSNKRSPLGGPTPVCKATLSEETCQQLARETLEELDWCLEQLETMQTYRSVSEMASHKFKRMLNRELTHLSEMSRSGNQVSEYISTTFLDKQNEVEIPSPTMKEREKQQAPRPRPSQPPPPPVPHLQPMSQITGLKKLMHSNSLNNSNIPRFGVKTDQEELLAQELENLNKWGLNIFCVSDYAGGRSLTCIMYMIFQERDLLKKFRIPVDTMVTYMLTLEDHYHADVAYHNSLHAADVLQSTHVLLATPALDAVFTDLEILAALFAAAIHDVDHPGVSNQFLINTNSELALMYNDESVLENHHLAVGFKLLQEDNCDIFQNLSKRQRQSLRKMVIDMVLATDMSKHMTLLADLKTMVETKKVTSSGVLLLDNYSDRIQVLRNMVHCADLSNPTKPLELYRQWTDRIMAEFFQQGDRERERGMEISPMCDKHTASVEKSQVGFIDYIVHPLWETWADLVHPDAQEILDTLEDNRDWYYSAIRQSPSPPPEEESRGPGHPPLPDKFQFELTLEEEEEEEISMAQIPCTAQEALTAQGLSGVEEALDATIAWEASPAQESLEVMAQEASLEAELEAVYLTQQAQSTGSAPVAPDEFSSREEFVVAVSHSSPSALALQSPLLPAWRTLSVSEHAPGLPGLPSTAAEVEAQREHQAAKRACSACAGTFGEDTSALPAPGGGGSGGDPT
Sequence of cGMP-inhibited 3',5'-cyclic phosphodiesterase 3A (Q14432 whole entry): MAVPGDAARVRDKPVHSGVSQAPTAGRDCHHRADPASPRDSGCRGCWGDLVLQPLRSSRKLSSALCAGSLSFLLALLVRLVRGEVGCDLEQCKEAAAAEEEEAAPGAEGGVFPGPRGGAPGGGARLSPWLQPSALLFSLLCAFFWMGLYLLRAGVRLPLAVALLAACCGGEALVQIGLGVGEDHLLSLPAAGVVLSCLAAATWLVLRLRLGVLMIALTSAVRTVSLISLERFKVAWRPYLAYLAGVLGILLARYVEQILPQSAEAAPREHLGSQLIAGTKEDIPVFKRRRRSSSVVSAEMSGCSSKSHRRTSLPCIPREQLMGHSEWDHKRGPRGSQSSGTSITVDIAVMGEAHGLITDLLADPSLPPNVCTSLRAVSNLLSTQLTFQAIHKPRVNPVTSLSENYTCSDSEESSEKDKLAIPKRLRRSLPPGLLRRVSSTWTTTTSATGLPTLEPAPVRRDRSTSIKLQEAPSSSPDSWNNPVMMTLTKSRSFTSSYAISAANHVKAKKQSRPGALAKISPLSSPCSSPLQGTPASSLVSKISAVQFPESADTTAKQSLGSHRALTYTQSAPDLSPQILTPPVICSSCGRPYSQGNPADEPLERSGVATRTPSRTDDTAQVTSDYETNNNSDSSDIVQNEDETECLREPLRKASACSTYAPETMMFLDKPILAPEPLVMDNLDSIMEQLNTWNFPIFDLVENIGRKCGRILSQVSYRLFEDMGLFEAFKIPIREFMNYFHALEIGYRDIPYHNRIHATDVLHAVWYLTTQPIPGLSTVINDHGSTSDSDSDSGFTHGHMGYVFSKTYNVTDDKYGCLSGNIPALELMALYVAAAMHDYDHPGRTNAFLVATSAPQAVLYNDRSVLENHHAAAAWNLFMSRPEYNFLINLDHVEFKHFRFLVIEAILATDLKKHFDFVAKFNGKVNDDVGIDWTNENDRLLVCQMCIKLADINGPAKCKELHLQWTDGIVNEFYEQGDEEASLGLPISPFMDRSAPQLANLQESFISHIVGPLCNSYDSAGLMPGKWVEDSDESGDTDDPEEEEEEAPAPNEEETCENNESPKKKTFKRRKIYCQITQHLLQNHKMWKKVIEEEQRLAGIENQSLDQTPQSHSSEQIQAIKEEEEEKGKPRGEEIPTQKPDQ
Sequence of 5-hydroxytryptamine receptor 2B (P41595 whole entry): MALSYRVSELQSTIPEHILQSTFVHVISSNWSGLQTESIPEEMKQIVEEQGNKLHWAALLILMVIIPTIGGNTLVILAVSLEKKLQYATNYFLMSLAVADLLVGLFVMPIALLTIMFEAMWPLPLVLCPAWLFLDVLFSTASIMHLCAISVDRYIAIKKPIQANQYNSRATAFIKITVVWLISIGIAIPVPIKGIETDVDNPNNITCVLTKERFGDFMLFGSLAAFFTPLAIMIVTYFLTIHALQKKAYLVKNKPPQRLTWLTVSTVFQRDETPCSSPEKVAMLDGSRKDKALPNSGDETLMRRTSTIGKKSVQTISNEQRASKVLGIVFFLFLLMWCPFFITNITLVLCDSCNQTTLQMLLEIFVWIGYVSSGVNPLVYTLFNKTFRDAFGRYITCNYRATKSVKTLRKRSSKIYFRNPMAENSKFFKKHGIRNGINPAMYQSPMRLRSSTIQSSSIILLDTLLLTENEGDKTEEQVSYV
Sequence of D(1A) dopamine receptor (P21728 whole entry): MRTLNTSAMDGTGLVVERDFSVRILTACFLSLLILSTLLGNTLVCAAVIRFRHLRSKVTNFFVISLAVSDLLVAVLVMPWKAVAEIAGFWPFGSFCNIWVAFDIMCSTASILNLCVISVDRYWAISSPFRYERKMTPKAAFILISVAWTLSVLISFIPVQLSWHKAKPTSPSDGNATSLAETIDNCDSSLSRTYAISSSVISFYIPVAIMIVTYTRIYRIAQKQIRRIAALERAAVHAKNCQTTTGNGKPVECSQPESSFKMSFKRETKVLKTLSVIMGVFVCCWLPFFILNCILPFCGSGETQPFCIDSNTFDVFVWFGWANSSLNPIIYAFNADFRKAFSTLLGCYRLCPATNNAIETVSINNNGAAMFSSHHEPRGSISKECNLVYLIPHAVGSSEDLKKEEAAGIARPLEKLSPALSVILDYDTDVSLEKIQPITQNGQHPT
Sequence of Sodium-dependent dopamine transporter (Q01959 whole entry): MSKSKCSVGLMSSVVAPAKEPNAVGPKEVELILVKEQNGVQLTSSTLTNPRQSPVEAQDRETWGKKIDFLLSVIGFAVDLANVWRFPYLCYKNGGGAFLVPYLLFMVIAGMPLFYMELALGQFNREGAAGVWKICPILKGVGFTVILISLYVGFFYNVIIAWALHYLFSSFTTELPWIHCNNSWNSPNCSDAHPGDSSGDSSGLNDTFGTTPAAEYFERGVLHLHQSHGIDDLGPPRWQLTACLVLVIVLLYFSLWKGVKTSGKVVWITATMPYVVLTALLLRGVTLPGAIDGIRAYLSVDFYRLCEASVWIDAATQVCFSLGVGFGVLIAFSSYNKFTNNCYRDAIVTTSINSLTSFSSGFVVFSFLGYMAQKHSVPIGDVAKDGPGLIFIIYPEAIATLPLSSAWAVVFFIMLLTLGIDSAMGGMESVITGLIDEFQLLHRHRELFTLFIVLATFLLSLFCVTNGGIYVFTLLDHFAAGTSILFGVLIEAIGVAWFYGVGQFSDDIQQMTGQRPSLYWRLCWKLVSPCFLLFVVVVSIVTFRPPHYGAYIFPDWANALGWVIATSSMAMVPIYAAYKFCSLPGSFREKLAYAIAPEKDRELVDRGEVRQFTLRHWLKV
Sequence of Bile salt export pump (O95342 whole entry): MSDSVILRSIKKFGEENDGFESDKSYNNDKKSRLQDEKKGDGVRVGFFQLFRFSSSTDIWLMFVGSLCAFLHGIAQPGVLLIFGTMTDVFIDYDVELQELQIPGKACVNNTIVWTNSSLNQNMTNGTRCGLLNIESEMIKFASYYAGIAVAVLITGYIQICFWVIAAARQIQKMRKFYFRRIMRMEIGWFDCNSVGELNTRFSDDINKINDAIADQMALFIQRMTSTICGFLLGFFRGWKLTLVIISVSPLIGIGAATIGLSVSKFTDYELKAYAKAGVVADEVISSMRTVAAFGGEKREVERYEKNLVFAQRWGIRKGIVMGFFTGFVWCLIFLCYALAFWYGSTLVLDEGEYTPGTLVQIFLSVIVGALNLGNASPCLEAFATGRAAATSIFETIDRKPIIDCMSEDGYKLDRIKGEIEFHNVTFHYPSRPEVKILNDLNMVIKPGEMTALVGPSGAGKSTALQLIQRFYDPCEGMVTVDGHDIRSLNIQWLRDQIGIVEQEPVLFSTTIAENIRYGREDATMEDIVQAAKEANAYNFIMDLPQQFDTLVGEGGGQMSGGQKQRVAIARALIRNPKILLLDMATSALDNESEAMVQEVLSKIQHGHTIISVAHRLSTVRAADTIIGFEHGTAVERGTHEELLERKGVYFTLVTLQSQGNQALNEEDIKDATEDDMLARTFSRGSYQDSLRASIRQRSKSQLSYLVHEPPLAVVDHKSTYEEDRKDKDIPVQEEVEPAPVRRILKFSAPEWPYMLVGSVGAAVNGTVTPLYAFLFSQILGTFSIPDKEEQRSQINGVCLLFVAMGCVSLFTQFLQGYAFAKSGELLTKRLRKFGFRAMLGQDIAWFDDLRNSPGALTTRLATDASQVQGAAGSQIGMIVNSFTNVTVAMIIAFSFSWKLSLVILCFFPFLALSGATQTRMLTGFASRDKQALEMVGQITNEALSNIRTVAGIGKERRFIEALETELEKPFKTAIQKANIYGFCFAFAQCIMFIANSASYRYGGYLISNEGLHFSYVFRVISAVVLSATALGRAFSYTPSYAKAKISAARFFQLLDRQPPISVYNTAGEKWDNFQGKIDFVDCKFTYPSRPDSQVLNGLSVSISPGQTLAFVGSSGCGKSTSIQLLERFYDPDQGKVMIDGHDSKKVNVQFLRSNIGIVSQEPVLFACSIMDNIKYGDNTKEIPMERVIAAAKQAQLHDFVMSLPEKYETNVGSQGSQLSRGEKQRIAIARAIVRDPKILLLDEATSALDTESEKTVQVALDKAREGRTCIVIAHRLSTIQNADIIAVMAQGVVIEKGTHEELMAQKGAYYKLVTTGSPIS

As usually defined, the AC50 is the midpoint of the concentration-response curve, whichever way the signal moves. On to `Cc1onc(-c2ccccc2)c1C(=O)N[C@@H]1C(=O)N2[C@@H]1SC(C)(C)[C@@H]2C(=O)O` [OXACILLIN], for which the half-maximal activity concentration (AC50) in [1] was 220 µM; in experiment [2], more than 30 µM; in experiment [3], more than 30 µM; in experiment [4], more than 30 µM; in experiment [5], more than 30 µM; in [6], more than 30 µM. The AC50 in [7], in experiment [8], in [9], in experiment [10], in experiment [11] and in experiment [12] was more than 30 µM each time. Also, the AC50 in [13], in [14], in [15], in [16], in [17] and in experiment [18] was more than 30 µM throughout.

As to `OC[C@@H](O)[C@@H](O)[C@H](O)[C@@H](O)CO` [SORBITOL], the AC50 in experiment [1] was more than 300 µM; in experiment [2] it was more than 30 µM; in experiment [3] it was more than 30 µM; in [4] it was more than 30 µM; in experiment [5], more than 30 µM; in experiment [6], more than 30 µM. The AC50 in [7], in experiment [8], in [9], in [10], in experiment [11] and in experiment [12] was more than 30 µM each time. Besides, the AC50 in [13], in [14], in experiment [15], in experiment [16], in [17] and in [18] was more than 30 µM throughout.
